Reference: ChEMBL document CHEMBL1201862, “PubChem BioAssay data set” (2004)
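Briefly, cells in 96-well plates were exposed to five compound concentrations for 48 h, and endpoints were estimated by linear interpolation. The concentration for 50% growth inhibition is given as GI50.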 Activity calls are given as the source filed them. Cut-off read from the data, not from the text of the source: active = GI50 up to about 1.1 µM and inactive = higher.

What was measured:
Assay in all cases: growth of human tumour cells (NCI), 48 h
[1] = system: HOP-92
[2] = system: M19-MEL
[3] = system: 786-0
[4] = system: HL-60
[5] = system: IGROV-1
[6] = system: HCT-15
[7] = system: SF-268
[8] = system: M14
[9] = system: SNB-19
[10] = system: XF498
[11] = system: UACC-257
[12] = system: OVCAR-8
[13] = system: LXFL 529
[14] = system: DMS-273
[15] = system: EKVX
[16] = system: DLD-1
[17] = system: U-251
[18] = system: UACC-62
[19] = system: SK-MEL-28
[20] = system: NCI-H23
[21] = system: MOLT-4
[22] = system: OVCAR-4
[23] = system: RXF 631
[24] = system: SNB-78
[25] = system: HOP-18
[26] = system: TK-10
[27] = system: ACHN
[28] = system: SN12C
[29] = system: COLO 205
[30] = system: RXF 393
[31] = system: SK-OV-3
[32] = system: OVCAR-3
[33] = system: HCT-116
[34] = system: A498
[35] = system: K562
[36] = system: OVCAR-5
[37] = system: KM-20L2
[38] = system: HT-29
[39] = system: CCRF-CEM
[40] = system: DMS-114
[41] = system: A549
[42] = system: NCI-H460
[43] = system: HCC 2998
[44] = system: UO-31
[45] = system: SR
[46] = system: SK-MEL-5
[47] = system: KM12
[48] = system: Malme-3M
[49] = system: HOP-62
[50] = system: SNB-75
[51] = system: SW-620
[52] = system: CAKI-1
[53] = system: NCI-H226
[54] = system: SK-MEL-2
[55] = system: SF-295
[56] = system: NCI-H522
[57] = system: LOX IMVI
[58] = system: SF-539
[59] = system: RPMI-8226

SMILES: C[N+](C)(C)CC(=O)N/N=c1\cc(C(=O)Nc2ccc(N=O)cc2C#N)oc2cc(O)ccc12
- GI50 [1]: > 100 µM (inactive)
- GI50 [2]: > 100 µM (inactive)
- GI50 [3]: > 100 µM (inactive)
- GI50 [4]: > 100 µM (inactive)
- GI50 [5]: > 100 µM (inactive)
- GI50 [6]: > 100 µM
- GI50 [7]: > 100 µM (inactive)
- GI50 [8]: > 100 µM (inactive)
- GI50 [9]: > 100 µM (inactive)
- GI50 [10]: > 100 µM (inactive)
- GI50 [11]: > 100 µM (inactive)
- GI50 [12]: > 100 µM (inactive)
- GI50 [13]: > 100 µM (inactive)
- GI50 [14]: > 100 µM (inactive)
- GI50 [15]: > 100 µM (inactive)
- GI50 [16]: > 100 µM (inactive)
- GI50 [17]: > 100 µM (inactive)
- GI50 [18]: > 100 µM (inactive)
- GI50 [19]: > 100 µM (inactive)
- GI50 [20]: > 100 µM (inactive)
- GI50 [21]: > 100 µM (inactive)
- GI50 [22]: > 100 µM (inactive)
- GI50 [23]: > 100 µM (inactive)
- GI50 [24]: > 100 µM (inactive)
- GI50 [25]: > 100 µM (inactive)
- GI50 [26]: > 100 µM (inactive)
- GI50 [27]: > 100 µM (inactive)
- GI50 [28]: > 100 µM (inactive)
- GI50 [29]: > 100 µM (inactive)
- GI50 [30]: > 100 µM (inactive)
- GI50 [31]: > 100 µM (inactive)
- GI50 [32]: > 100 µM (inactive)
- GI50 [33]: > 100 µM (inactive)
- GI50 [34]: > 100 µM (inactive)
- GI50 [35]: > 100 µM (inactive)
- GI50 [36]: > 100 µM (inactive)
- GI50 [37]: > 100 µM (inactive)
- GI50 [38]: > 100 µM (inactive)
- GI50 [39]: > 100 µM (inactive)
- GI50 [40]: > 100 µM (inactive)
- GI50 [41]: > 100 µM (inactive)
- GI50 [42]: > 100 µM (inactive)
- GI50 [43]: > 100 µM (inactive)
- GI50 [44]: 72.3 µM (inactive)
- GI50 [45]: > 100 µM (inactive)
- GI50 [46]: > 100 µM (inactive)
- GI50 [47]: > 100 µM (inactive)
- GI50 [48]: > 100 µM (inactive)
- GI50 [49]: > 100 µM (inactive)
- GI50 [50]: > 100 µM (inactive)
- GI50 [51]: > 100 µM (inactive)
- GI50 [52]: > 100 µM (inactive)
- GI50 [53]: > 100 µM (inactive)
- GI50 [54]: > 100 µM (inactive)
- GI50 [55]: > 100 µM (inactive)
- GI50 [56]: > 100 µM (inactive)
- GI50 [57]: > 100 µM (inactive)
- GI50 [58]: > 100 µM (inactive)

SMILES: O=C(CC/C(CC(=O)c1ccc(Cl)cc1)=N/O)Nc1ccc(Cl)c(Cl)c1
- GI50 [1]: 82.4 µM (inactive)
- GI50 [2]: > 100 µM (inactive)
- GI50 [3]: > 100 µM (inactive)
- GI50 [4]: > 100 µM (inactive)
- GI50 [5]: 47.6 µM (inactive)
- GI50 [6]: 48.1 µM
- GI50 [7]: > 100 µM (inactive)
- GI50 [8]: > 100 µM (inactive)
- GI50 [9]: > 100 µM (inactive)
- GI50 [10]: > 100 µM (inactive)
- GI50 [11]: > 100 µM (inactive)
- GI50 [12]: > 100 µM (inactive)
- GI50 [13]: 80.7 µM (inactive)
- GI50 [14]: > 100 µM (inactive)
- GI50 [15]: 10.3 µM (inactive)
- GI50 [59]: 76.9 µM (inactive)
- GI50 [16]: > 100 µM (inactive)
- GI50 [17]: > 100 µM (inactive)
- GI50 [18]: 18.3 µM (inactive)
- GI50 [19]: > 100 µM (inactive)
- GI50 [20]: 45.5 µM (inactive)
- GI50 [21]: 53.2 µM (inactive)
- GI50 [22]: 43.4 µM (inactive)
- GI50 [23]: > 100 µM (inactive)
- GI50 [24]: > 100 µM (inactive)
- GI50 [25]: > 100 µM (inactive)
- GI50 [26]: > 100 µM (inactive)
- GI50 [27]: 31.8 µM (inactive)
- GI50 [28]: > 100 µM (inactive)
- GI50 [29]: > 100 µM (inactive)
- GI50 [31]: > 100 µM (inactive)
- GI50 [32]: > 100 µM (inactive)
- GI50 [33]: > 100 µM (inactive)
- GI50 [34]: > 100 µM (inactive)
- GI50 [35]: 50.4 µM (inactive)
- GI50 [36]: 24 µM (inactive)
- GI50 [37]: 36.2 µM (inactive)
- GI50 [38]: > 100 µM (inactive)
- GI50 [39]: > 100 µM (inactive)
- GI50 [40]: 65.3 µM (inactive)
- GI50 [41]: > 100 µM (inactive)
- GI50 [42]: > 100 µM (inactive)
- GI50 [44]: 98.4 µM (inactive)
- GI50 [45]: 89.5 µM (inactive)
- GI50 [46]: 76.2 µM (inactive)
- GI50 [47]: > 100 µM (inactive)
- GI50 [48]: > 100 µM (inactive)
- GI50 [49]: > 100 µM (inactive)
- GI50 [50]: 26 µM (inactive)
- GI50 [51]: > 100 µM (inactive)
- GI50 [52]: 86.1 µM (inactive)
- GI50 [53]: > 100 µM (inactive)
- GI50 [54]: 38.3 µM (inactive)
- GI50 [55]: > 100 µM (inactive)
- GI50 [56]: 82.6 µM (inactive)
- GI50 [58]: > 100 µM (inactive)
